Laboratory results taken from patent US5015628A, “Anticariogenic phosphopeptides” (The University of Melbourne, priority 1986, dated 1991).
Where a SMILES comes first, the peptide text is derived from it. [ ]: non-standard residue; d: D form. pS = N[C@@H](COP(=O)(O)O)C(=O)O

Assay: Intra-Oral Caries Test (Test 2)
Assay type: in vivo
Conditions: plaque exposed twice a day to the peptide T1 solution
Description: The anticariogenicity of phosphopeptide T1 was determined using a modification of the intra-oral caries test of Koulourides and Ostrom (Caries Res. 10:442-482, 1976). Enamel slabs were inset in a removable intra-oral appliance to simulate an approximal area. This was done on both sides of the removable appliance (left and right). The appliance was worn to allow plaque accumulation in the simulated approximal areas. Eight times a day the appliance was removed and placed in a solution at 37° C. The solution was 2% w/v sucrose, 2% w/v glucose, 140 mM KCl, 20 mM NaCl at pH 7.0. Twice a day the right side enamel slabs received exposure to a solution containing 1.8% w/v calcium phosphate T1 in 140 mM KCl, 20 mM NaCl at pH 7.0, while the left side received only the salt solution. At the completion of the experiment the enamel slabs were removed, sectioned and subjected to microradiography and microhardness testing. […] The results were confirmed by microhardness analysis. Plaque was also taken from both sides of the appliance and analysed for calcium phosphate, serine phosphate and peptide T1 using a competitive, quantitative, enzyme-linked immunosorbent assay (ELISA) utilising monoclonal antipeptide T1 antibodies.

For `CC[C@H](C)[C@H](NC(=O)[C@H](COP(=O)(O)O)NC(=O)[C@H](CCC(=O)O)NC(=O)[C@H](C)NC(=O)[C@H](CCC(=O)O)NC(=O)[C@H](CCSC)NC(=O)[C@@H](N)CCC(=O)O)C(=O)N[C@@H](COP(=O)(O)O)C(=O)N[C@@H](COP(=O)(O)O)C(=O)N[C@@H](COP(=O)(O)O)C(=O)N[C@@H](CCC(=O)O)C(=O)N[C@@H](CCC(=O)O)C(=O)N[C@H](C(=O)N[C@H](C(=O)N1CCC[C@H]1C(=O)N[C@@H](CC(N)=O)C(=O)N[C@@H](COP(=O)(O)O)C(=O)N[C@H](C(=O)N[C@@H](CCC(=O)O)C(=O)N[C@@H](CCC(N)=O)C(=O)N[C@@H](CCCCN)C(=O)O)C(C)C)C(C)C)[C@@H](C)CC` [T1, Glu-Met-Glu-Ala-Glu-Pse-Ile-Pse-Pse-Pse-Glu-Glu-Ile-Val-Pro-Asn-Pse-Val-Glu-Gln-Lys] (H-EMEAE[pS]I[pS][pS][pS]EEIVPN[pS]VEQK-OH), the “level of peptide in plaque (ELISA)” value was “at least 0.4 % w/wet wt of plaque”.
